# Experimental data taken from US12679848B2, “Plasma kallikrein inhibitors” (Merck Sharp & Dohme LLC, priority 2020, dated 2026).
# Assays:
# human factor XIa = human factor XIa (Homo sapiens, UniProt P03951); assay: Factor XIa Assay; type: biochemical; conditions: human factor XIa 0.04 nM, substrate GPR-AFC, 30 min pre-incubation, 25° C., pH 7.4; read-out: FXIa IC50
# Protocol: (§1) The effectiveness of a compound of the present invention as an inhibitor of Coagulation factor XIa can be determined using a relevant purified serine protease, and an appropriate synthetic substrate. The rate of hydrolysis of the chromogenic or fluorogenic substrate by the relevant serine protease was measured both in the absence and presence of compounds of the present invention. Assays were conducted at rt or at 37° C. […] A decrease in the rate of fluorescence change in the presence of inhibitor is indicative of enzyme inhibition. Such methods are known to one skilled in the art. The results of this assay are expressed as the half-maximal inhibitory concentrations (IC50), or the inhibitory constant, Ki.
# Compounds were pre-incubated for 30 min at 25° C. with human (0.04 nM) factor XIa in 50 mM HEPES buffer with 150 mM sodium chloride, 5 mM calcium chloride, 0.1% PEG 8000, pH 7.4. factor XIa enzymatic activity was determined by addition of the substrate glycine-proline-arginine-7-amido-4-trifluoromethylcoumarin (GPR-AFC) and measurement of the fluorescence at 400/505 nm after a 60 min incubation at 25° C. The % inhibition for each data point was calculated from the data and analyzed using the log (inhibitor) vs. response four parameters equation to determine the half-maximal inhibitory concentrations (IC50). The IC50 were converted to equilibrium inhibitory constants (Ki) using the Cheng-Prusoff equation.
# Human plasma kallikrein = target: T1, Human plasma kallikrein (Homo sapiens, UniProt P03952); assay: Plasma Kallikrein Assay; type: biochemical; conditions: purified Human plasma kallikrein 0.5 nM, substrate Acetyl-K-P-R-AFC, HEPES pH 7.4; read-out: PKal IC50
# T1 construct: yields a heavy chain (371 amino acids) and a light chain (248 amino acids); The active site of plasma kallikrein is contained in the light chain; purchased Enzyme Research Laboratories
# Protocol: as §1, with “plasma kallikrein” for “Coagulation factor XIa”
# Plasma kallikrein determinations were made in 50 mM HEPES buffer at pH 7.4 containing 150 mM NaCl, 5 mM CaCl2), and 0.1% PEG 8000 (polyethylene glycol; Fisher Scientific). Determinations were made using purified Human plasma kallikrein at a final concentration of 0.5 nM (Enzyme Research Laboratories) and the synthetic substrate, Acetyl-K—P—R-AFC (Sigma #C6608) at a concentration of […].
# Times required to achieve equilibration between enzyme and inhibitor were determined in control experiments. […] IC50 was determined by inflection point from a four parameter logistic curve fit. Ki was calculated using the Cheng Prusoff equation, Ki=IC50/[…](1+([S]/Km)).
# human factor XIa, sequence (P03951 388-625 limits assumed): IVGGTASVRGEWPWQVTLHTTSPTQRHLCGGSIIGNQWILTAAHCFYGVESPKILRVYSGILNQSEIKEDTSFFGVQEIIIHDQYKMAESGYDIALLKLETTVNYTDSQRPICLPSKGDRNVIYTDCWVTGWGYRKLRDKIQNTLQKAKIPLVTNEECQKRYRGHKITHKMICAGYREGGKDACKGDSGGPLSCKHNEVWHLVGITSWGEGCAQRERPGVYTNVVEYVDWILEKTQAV
# human factor XIa, sequence (P03951 19-387 partner limits assumed): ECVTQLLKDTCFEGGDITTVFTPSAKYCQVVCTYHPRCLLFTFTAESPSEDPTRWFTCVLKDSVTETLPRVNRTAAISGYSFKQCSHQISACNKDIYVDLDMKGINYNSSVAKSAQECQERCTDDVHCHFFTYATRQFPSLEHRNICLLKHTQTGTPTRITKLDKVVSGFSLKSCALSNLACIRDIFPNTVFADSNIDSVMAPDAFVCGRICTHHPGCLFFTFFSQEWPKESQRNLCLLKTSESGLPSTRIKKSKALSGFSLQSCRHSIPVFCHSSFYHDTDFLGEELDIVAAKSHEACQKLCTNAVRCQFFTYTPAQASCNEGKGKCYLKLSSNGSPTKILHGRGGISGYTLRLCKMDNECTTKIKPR
# T1 sequence (P03952 391-638 limits assumed): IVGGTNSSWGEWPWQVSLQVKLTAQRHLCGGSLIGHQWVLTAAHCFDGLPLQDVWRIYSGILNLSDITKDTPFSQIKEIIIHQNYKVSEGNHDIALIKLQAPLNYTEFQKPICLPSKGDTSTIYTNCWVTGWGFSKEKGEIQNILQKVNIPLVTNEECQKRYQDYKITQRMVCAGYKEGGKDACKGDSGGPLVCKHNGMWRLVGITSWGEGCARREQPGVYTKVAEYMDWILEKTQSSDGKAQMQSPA
# T1 sequence (P03952 20-390 partner limits assumed): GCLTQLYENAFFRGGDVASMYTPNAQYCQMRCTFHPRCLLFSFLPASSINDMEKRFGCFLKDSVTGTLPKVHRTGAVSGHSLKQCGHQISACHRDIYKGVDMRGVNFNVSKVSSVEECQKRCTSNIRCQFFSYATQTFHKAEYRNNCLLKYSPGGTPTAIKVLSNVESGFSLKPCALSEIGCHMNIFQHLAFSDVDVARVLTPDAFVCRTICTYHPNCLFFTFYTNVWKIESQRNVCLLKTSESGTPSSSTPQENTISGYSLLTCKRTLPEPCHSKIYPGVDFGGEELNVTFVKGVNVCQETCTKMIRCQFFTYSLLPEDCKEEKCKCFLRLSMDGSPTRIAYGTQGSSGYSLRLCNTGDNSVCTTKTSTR
Structure (SMILES),IC50 (human factor XIa),IC50 (Human plasma kallikrein)
"Nc1c(C(=O)N2CCC[C@@]3(C2)OC(=O)Nc2ccc(Cl)c(F)c23)cnn1-c1ccc(Cl)cc1Cl [Example 65, (R)-1'-(5-Amino-1-(2,4-dichlorophenyl)-1H-pyrazole-4-carbonyl)-6-chloro-5-fluorospiro[benzo[d][1,3]oxazine-4,3'-piperidin]-2(1H)-one]",160 nM,37.5 nM
"Nc1c(C(=O)N2CCC[C@@]3(C2)OC(=O)Nc2ccc(Cl)c(F)c23)cnn1Cc1cncnc1 [Example 51, (R)-1'-(5-Amino-1-(pyrimidin-5-ylmethyl)-1H-pyrazole-4-carbonyl)-6-chloro-5-fluorospiro[benzo[d][1,3]oxazine-4,3'-piperidin]-2(1H)-one]",996 nM,9.8 nM
"Nc1c(C(=O)N2CCC[C@@]3(C2)OC(=O)Nc2ccc(Cl)c(F)c23)cnn1C1(c2ccc(F)cc2)CC1 [Example 28, (R)-1'-(5-Amino-1-(1-(4-fluorophenyl)cyclopropyl)-1H-pyrazole-4-carbonyl)-6-chloro-5-fluorospiro[benzo[d][1,3]oxazine-4,3'-piperidin]-2(1H)-one]",112 nM,2.9 nM
"CCC(n1ncc(C(=O)N2CC(C)(C)C[C@@]3(C2)OC(=O)Nc2ccc(Cl)c(F)c23)c1N)C(F)(F)F (single isomer, unassigned) [Example 130, (R)-1'-(5-Amino-1-((R or S)-1,1,1-trifluorobutan-2-y1)-1H-pyrazole-4-carbonyl)-6-chloro-5-fluoro-5',5'-dimethylspiro[benzo[d][1,3]oxazine-4,3'-piperidin]-2(1H)-one]",8 nM,1.6 nM
"CCc1ccccc1-n1ncc(C(=O)N2CCC[C@@]3(C2)OC(=O)Nc2ccc(Cl)c(F)c23)c1N [Example 80, (R)-1'-(5-Amino-1-(2-ethylphenyl)-1H-pyrazole-4-carbonyl)-6-chloro-5-fluorospiro[benzo[d][1,3]oxazine-4,3'-piperidin]-2(1H)-one]",325 nM,11.6 nM
"Nc1c(C(=O)N2CCC[C@@]3(C2)OC(=O)Nc2ccc(Cl)c(F)c23)cnn1-c1ccc(N2CCOC2=O)cc1 [Example 75, (R)-1'-(5-Amino-1-(4-(2-oxooxazolidin-3-yl)phenyl)-1H-pyrazole-4-carbonyl)-6-chloro-5-fluorospiro[benzo[d][1,3]oxazine-4,3'-piperidin]-2(1H)-one]",4720 nM,50.7 nM
"Nc1c(C(=O)N2CCC[C@@]3(C2)OC(=O)Nc2ccc(Cl)c(F)c23)cnn1Cc1ccccc1Cl [Example 44, (R)-1'-(5-Amino-1-(2-chlorobenzyl)-1H-pyrazole-4-carbonyl)-6-chloro-5-fluorospiro[benzo[d][1,3]oxazine-4,3'-piperidin]-2(1H)-one]",251 nM,1.1 nM
"Nc1c(C(=O)N2CCC[C@@]3(C2)OC(=O)Nc2ccc(Cl)c(F)c23)cnn1-c1ccccc1Oc1ccccc1 [Example 96, (R)-1'-(5-Amino-1-(2-phenoxyphenyl)-1H-pyrazole-4-carbonyl)-6-chloro-5-fluorospiro[benzo[d][1,3]oxazine-4,3'-piperidin]-2(1H)-one]",1370 nM,1.1 nM
"CC1(C)CN(C(=O)c2cnn(-c3ccccc3)c2N)C[C@]2(C1)OC(=O)Nc1ccc(Cl)c(F)c12 [Example 69, (R)-1'-(5-Amino-1-phenyl-1H-pyrazole-4-carbonyl)-6-chloro-5-fluoro-5',5'-dimethylspiro[benzo[d][1,3]oxazine-4,3'-piperidin]-2(1H)-one]",4590 nM,41.7 nM
"COc1ccc(-n2ncc(C(=O)N3CCC[C@@]4(C3)OC(=O)Nc3ccc(Cl)c(F)c34)c2N)cc1 [Example 58, (R)-1'-(5-Amino-1-(4-methoxyphenyl)-1H-pyrazole-4-carbonyl)-6-chloro-5-fluorospiro[benzo[d][1,3]oxazine-4,3'-piperidin]-2(1H)-one]",3130 nM,39.7 nM
"COCC(C)(n1ncc(C(=O)N2CCC[C@@]3(C2)OC(=O)Nc2ccc(Cl)c(F)c23)c1N)C(F)(F)F (single isomer, unassigned) [Example 129]",898 nM,6.5 nM
"CCOC(=O)c1ccc(C)c(-n2ncc(C(=O)N3CCC[C@@]4(C3)OC(=O)Nc3ccc(Cl)c(F)c34)c2N)c1 [Example 70, Ethyl (R)-3-(5-amino-4-(6-chloro-5-fluoro-2-oxo-1,2-dihydrospiro[benzo[d][1,3]oxazine-4,3'-piperidine]-1'-carbonyl)-1H-pyrazol-1-y1)-4-methylbenzoate]",1140 nM,13.4 nM
"Nc1c(C(=O)N2CCC[C@@]3(C2)OC(=O)Nc2ccc(Cl)c(F)c23)cnn1C1(C(F)(F)F)CC1 [Example 50, (R)-1'-(5-Amino-1-(1-(trifluoromethyl)cyclopropyl)-1H-pyrazole-4-carbonyl)-6-chloro-5-fluorospiro[benzo[d][1,3]oxazine-4,3'-piperidin]-2(1H)-one]",684 nM,8.3 nM
"COCCn1ncc(C(=O)N2CCC[C@@]3(C2)OC(=O)Nc2ccc(Cl)c(F)c23)c1N [Example 24, (R)-1'-(5-Amino-1-(2-methoxyethyl)-1H-pyrazole-4-carbonyl)-6-chloro-5-fluorospiro[benzo[d][1,3]oxazine-4,3'-piperidin]-2(1H)-one]",425 nM,10.9 nM
"CC(=O)Nc1cccc(-n2ncc(C(=O)N3CCC[C@@]4(C3)OC(=O)Nc3ccc(Cl)c(F)c34)c2N)c1 [Example 71, (R)-N-(3-(5-Amino-4-(6-chloro-5-fluoro-2-oxo-1,2-dihydrospiro[benzo[d][1,3]oxazine-4,3'-piperidine]-1'-carbonyl)-1H-pyrazol-1-yl)phenyl)acetamide]",4050 nM,36.6 nM
"Cc1noc(C)c1Cn1ncc(C(=O)N2CCC[C@@]3(C2)OC(=O)Nc2ccc(Cl)c(F)c23)c1N [Example 11, (R)-1'-(5-Amino-1-((3,5-dimethylisoxazol-4-yl)methyl)-1H-pyrazole-4-carbonyl)-6-chloro-5-fluorospiro[benzo[d][1,3]oxazine-4,3'-piperidin]-2(1H)-one]",438 nM,1.7 nM
"Nc1c(C(=O)N2CCC[C@@]3(C2)OC(=O)Nc2ccc(Cl)c(F)c23)cnn1C1(C(F)(F)F)CCOCC1 [Example 53, (R)-1'-(5-Amino-1-(4-(trifluoromethyl)tetrahydro-2H-pyran-4-y1)-1H-pyrazole-4-carbonyl)-6-chloro-5-fluorospiro[benzo[d][1,3]oxazine-4,3'-piperidin]-2(1H)-one]",1110 nM,8.7 nM
"Nc1c(C(=O)N2CCC[C@@]3(C2)OC(=O)Nc2ccc(Cl)c(F)c23)cnn1-c1ccnc2ccccc12 [Example 103, (R)-1'-(5-Amino-1-(quinolin-4-yl)-1H-pyrazole-4-carbonyl)-6-chloro-5-fluorospiro[benzo[d][1,3]oxazine-4,3'-piperidin]-2(1H)-one]",610 nM,10.1 nM
"Nc1c(C(=O)N2CCC[C@@]3(C2)OC(=O)Nc2ccc(Cl)c(F)c23)cnn1Cc1cccc(Cl)c1 [Example 6, (R)-1'-(5-Amino-1-(3-chlorobenzyl)-1H-pyrazole-4-carbonyl)-6-chloro-5-fluorospiro[benzo[d][1,3]oxazine-4,3'-piperidin]-2(1H)-one]",177 nM,0.5 nM
